US20260097090A1, “HERBAL MEDICINE EXTRACTS RM01 AND USES AND METHODS OF PREPARATION THEREOF” (RenuMemo Therapeutics LLC, priority 2022, published 2026)

Test system: patient with severe Alzheimer's disease
Test: Human efficacy case study, Mini Mental State Examination (MMSE) and family report
Format: in vivo
Conditions: same patient, long time taking Memantine and Donepezil before RM01; drugs stopped before the visit
Description: The patient has been taking Memantine and Donepezil to treat their disease. However, both drugs were stopped before the visit.
The patient was evaluated by Mini Mental State Examination (MMSE) during the first visit.
The patient was given the herbal extract composition RM01 twice a day every day, for five weeks. Family member assisted all the process.
The patient was re-evaluated of MMSE after 1 week of treatment. In the meantime, the family member was questioned on patient daily life, regarding sleep, mood, reaction to people, behavioral and psychological symptoms.
The treatment and re-evaluation lasted 5 weeks.

Row | Structure (SMILES) | patient symptom improvement on prior medication, informed by the patient's spouse
1 | COc1cc2c(cc1OC)C(=O)C(CC1CCN(Cc3ccccc3)CC1)C2 (centres unmarked) [Donepezil] | not much effect
2 | CC12CC3CC(C)(C1)CC(N)(C3)C2 [Memantine] | not much effect
